This note sets out measurements from patent publication US20240287048A1, “SUBSTITUTED ACYL SULFONAMIDES FOR TREATING CANCER” (The Broad Institute, Inc., priority 2020, published 2024).

SMILES strings stand for the structures. Bounds are passed on as bounds.

For one experiment, the system named is MDA-MB-436 cells. The experiment in a line: Proliferation assay in MDA-MB-436 cells (negative control cell line). The following applies: Homo sapiens, 144 h, Alamar Blue, read-out: MDA-MB-436 proliferation assay, EC50[M] (arithmetic mean). Type of experiment: cell-based. An excerpt:
(§1) For compound characterization cell survival assays were routinely run in two cell lines. ZR-75-1 is a breast carcinoma cell line containing a focal KAT6A amplification and high KAT6A protein expression. Proliferation of this cell line is inhibited upon treatment with KAT6A inhibitors. As a negative control cell line MDA-MB-436 were used. These cells carry a […] deletion of the KAT6A gene, have a low KAT6A protein expression and are not growth inhibited upon treatment with KAT6A inhibitors.
(§2) For measurements cell lines were plated at the below indicated concentration per […] in 96-well plates in a humidified incubator at 37° C. and 5% CO2.
(§3) ZR-75-1 (ATCC, CRL-1500; breast carcinoma); 3000 cells per well; culture medium: RPMI 1640 (Biochrom #FG 1215) medium containing 2.5% FBS (Biochrom #S0615). LCLC-97TM1 (DSMZ, ACC 388; large cell lung carcinoma); 6000 cells per well; culture medium: RPMI 1640 (Biochrom #FG 1215) medium containing 2.5% FBS (Biochrom #S0615). MDA-MB-436 (CLS, 300278; breast adenocarcinoma); 3000 cells per well; culture medium: DMEM/Ham's F12 (Biochrom #FG 4815) medium containing 2.5% FBS (Biochrom #S0615).
(§4) Each sample was prepared as triplicate and rim wells were excluded. Plates were incubated at 37° C. and 5% CO2 for 144 h. Cell viability was measured by adding 10 μL of Alamar Blue Reagent (Invitrogen #DAL 1100) and plates were incubated for 2 h at 37° C. and 5% CO2. Fluorescence was measured at 590 nm wavelength with a Tecan Spark or Victor X3 MTP-Reader (PerkinElmer).

The subject of the next experiment is ZR-75-1 cells. Briefly: Proliferation assay in ZR-75-1 cells. Type of experiment: cell-based. The following applies: Homo sapiens, 144 h, Alamar Blue, read-out: ZR75-1 proliferation assay, EC50[M] (arithmetic mean).
Source text: as §1, §2, §3, §4
Background: Resazurin is reduced to fluorescent resorufin, in cell work by metabolically active cells.

In another experiment the target is T1, KAT6A (Homo sapiens, UniProt Q92794).
T1 construct: Recombinant human His-tagged Kat6a protein (amino acids 194-810); His; made in house; host or cells: Baculovirus-infected Sf9 insect cells
Briefly: Kat6a activity assay (TR-FRET, acetylation of biotinylated histone H4 peptide). Type of experiment: biochemical. The following applies: recombinant human His-tagged Kat6a (amino acids 194-810), 60 mins at 22° C., read-out: KAT6A-DPF/HAT domain IC50 [mol/l] (arithmetic mean). An excerpt:
Kat6a inhibitory activities of the compounds described in the present invention were quantified using a Fluorescence Resonance Energy Transfer (TR-FRET) assay which measures acetylation of a synthetic, biotinylated Histone-H4-derived peptide by the enzyme.
Recombinant human His-tagged Kat6a protein (amino acids 194-810), was purified in-house from Baculovirus-infected insect cells (Sf9). Histone H4 peptide (amino acids 1-24, […]-VLRD-K(Btn)-amide), which was used as substrate, was synthesized by Biosyntan GmbH, Berlin, Germany. Acetyl Coenzyme A was purchased from Sigma-Aldrich (#A-2056).
Kat6a was incubated for 60 mins at 22° C. in the presence of different concentrations of test substances (0 μM, and within the range 0.01-20 μM) in assay buffer [25 mM Tris/HCl pH 8, 1 mM EGTA, 2.5 mM Glutathion, 0.02% Chicken Albumin, 0.05% Pluronic F127, 25 mM NaCl, 220 nM H4 peptide and 600 nM Acetyl Coenzyme A].
The reaction was stopped by addition of Detection Solution (25 mM HEPES pH 7.5, 0.1% BSA, 22 nM SAXL665 (Cisbio #610SAXLE), 100 μM Anacardic Acid (Enzo #ALX-270-381), 1 nM Anti-Histone H4 (ACETYL K8) Antibody (ABCAM #AB15823) and 0.5 nM Anti-Rabbit IgG Eu (Perkin Elmer #AD0083).
The fluorescence emission at 620 nm and 665 nm after excitation at 330-350 nm was measured in a TR-FRET measuring instrument, for instance a Rubystar or a Pherastar (both from BMG Lab Technologies, Offenburg, Germany) or a Viewlux (Perkin-Elmer). The ratio of the emission at 665 nm and at […] was used as indicator of the amount of acetylated peptide.
The resulting data (ratio) were normalized, taking 0% inhibition as the mean value of control measurements where all reagents were included. In this case 50 nl DMSO were used instead of compounds. […] IC50 values were determined by regression analysis based on a 4 parameter equation (minimum, maximum, ICM, Hill; Y=Max+(Min−Max)/(1+(X/ICso) Hill) using the Screener Software (Genedata).

For experiment [1], the system named is ESR1 transcription in MVLN cells. The experiment in a line: Repression of ESR1 transcription, MVLN luciferase reporter assay. Type of experiment: cell-based. The settings on record: Homo sapiens, luciferase signal after 24 h, read-out: MVLN reporter assay, IC50[M] (arithmetic mean). From the text:
KAT6A controls transcription of the ESR1 gene in breast cancer cells. Compound treatment that interferes with this mechanism was quantified using MVLN cells. These cells constitutively express the ER and are stably transfected with the luciferase (LUC) reporter gene and the corresponding hormone responsive element derived from the 5′-flanking region of the Xenopus Vitellogenin A2 gene (Pons et al., 1990, Demirpense et al., 1993, Joyeux et al., 1993). The repressive effect on ERα transcription activity of a test chemical is directly related to the luciferase measured in the lysate of treated MVLN cells.
Each sample was prepared as duplicate and rim wells were excluded. For luciferase signal determination 100 μl of a 1:1 mixture of Steadylite plus (Perkin Elmer; 6016759) and assay medium was added after 24 h for 15 minutes and measured in Victor X3 (Perkin Elmer). To exclude any effects caused by cell loss during the treatment, cell density was determined using Alamar Blue (Invitrogen; DAL1100). Prior to the luciferase measurement 10 μl Alamar Blue were added to each well and the plates were incubated for 2 h in the incubator. Then fluorescence was measured with Victor X3 (Perkin Elmer) at 530 nm/590 nm.
(In general: A reporter such as luciferase makes a cellular process visible.)

Another experiment relates to LCLC-97TM1 cells. The experiment in a line: Proliferation assay in LCLC-97TM1 cells. Type of experiment: cell-based. The settings on record: Homo sapiens, 144 h, Alamar Blue, read-out: LCLC97TM1 proliferation assay, EC50[M] (arithmetic mean). How it is done: as §2, §3, §4

T1 sequence (Q92794 194-810): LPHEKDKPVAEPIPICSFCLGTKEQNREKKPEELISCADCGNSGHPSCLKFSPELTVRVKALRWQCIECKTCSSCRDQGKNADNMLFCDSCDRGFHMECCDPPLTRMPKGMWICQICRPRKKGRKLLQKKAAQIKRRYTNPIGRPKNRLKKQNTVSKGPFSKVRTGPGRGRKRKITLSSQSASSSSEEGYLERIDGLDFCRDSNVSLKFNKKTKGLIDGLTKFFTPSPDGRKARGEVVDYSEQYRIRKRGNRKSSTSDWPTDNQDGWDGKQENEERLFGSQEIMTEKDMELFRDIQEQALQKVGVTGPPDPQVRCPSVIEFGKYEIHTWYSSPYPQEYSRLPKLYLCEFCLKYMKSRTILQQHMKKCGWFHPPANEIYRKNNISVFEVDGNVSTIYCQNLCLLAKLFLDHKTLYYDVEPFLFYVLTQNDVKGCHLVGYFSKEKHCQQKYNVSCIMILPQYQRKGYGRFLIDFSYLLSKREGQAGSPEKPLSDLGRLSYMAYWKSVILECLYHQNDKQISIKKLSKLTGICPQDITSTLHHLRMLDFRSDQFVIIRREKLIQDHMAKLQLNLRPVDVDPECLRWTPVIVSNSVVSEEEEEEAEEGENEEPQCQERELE

`N#Cc1ccc2cc(C(=O)NS(=O)(=O)c3ccccc3-c3ccccc3)oc2c1` [Example 3, N-([1,1′-biphenyl]-2-sulfonyl)-6-cyano-1-benzofuran-2-carboxamide]: the EC50 in the experiment on MDA-MB-436 cells and in the experiment with ZR-75-1 cells was > 2e-05 M each time. Besides, at KAT6A, the IC50 was > 20 µM.

In the case of `O=C(NS(=O)(=O)c1ccccc1-c1ccccc1)c1cc2ccc(-c3cccnc3)cc2o1` [Example 4, N-([1,1′-biphenyl]-2-sulfonyl)-6-(pyridin-3-yl)-1-benzofuran-2-carboxamide], the EC50 with MDA-MB-436 cells, in the experiment with ZR-75-1 cells and in the experiment on LCLC-97TM1 cells was > 2e-05 M each time. Also, the IC50 in experiment [1] was found to be 1.98e-05 M; on KAT6A it was 15.2 µM.

For the compound `O=C(O)c1ccc2cc(C(=O)NS(=O)(=O)c3ccccc3-c3ccccc3)oc2c1` [Example 5, 2-[([1,1′-biphenyl]-2-sulfonyl)carbamoyl]-1-benzofuran-6-carboxylic acid], the EC50 in the experiment on MDA-MB-436 cells and in the experiment on ZR-75-1 cells was > 2e-05 M throughout. Besides, the IC50 was > 2e-05 M in experiment [1] and 5.75 µM on KAT6A.

Regarding `CN(C)C(=O)c1ccc2cc(C(=O)NS(=O)(=O)c3ccccc3-c3ccccc3)oc2c1` [Example 8, N^2-([1,1′-biphenyl]-2-sulfonyl)-N^6,N^6-dimethyl-1-benzofuran-2,6-dicarboxamide], the EC50 with MDA-MB-436 cells and with ZR-75-1 cells was > 2e-05 M in each case. In addition, the IC50 in experiment [1] was > 2e-05 M; at KAT6A, 17.3 µM.

On to `Cc1ccc2c(C)c(C(=O)NS(=O)(=O)c3ccccc3-c3ccccc3)oc2c1` [Example 14, N-([1,1′-biphenyl]-2-sulfonyl)-3,6-dimethyl-1-benzofuran-2-carboxamide], for which the results for the EC50 in the experiment with MDA-MB-436 cells, in the experiment on ZR-75-1 cells and in the experiment on LCLC-97TM1 cells were > 2e-05 M, 8.7e-06 M and 9.97e-06 M, respectively. Moreover, the IC50 in experiment [1] amounted to 4.11e-06 M; on KAT6A it was 0.459 µM.

On to `O=C(NS(=O)(=O)c1ccccc1-c1ccccc1)c1cc2ccc(C3CC3)c(F)c2o1` [Example 15, N-([1,1′-biphenyl]-2-sulfonyl)-6-cyclopropyl-7-fluoro-1-benzofuran-2-carboxamide], for which the EC50 with MDA-MB-436 cells was > 2e-05 M; in the experiment with ZR-75-1 cells, 8.42e-06 M; with LCLC-97TM1 cells it was > 2e-05 M. The IC50 in experiment [1] came out at 6.75e-06 M; at KAT6A, 0.908 µM.

Consider `CCOc1ccccc1S(=O)(=O)NC(=O)c1oc2cc(C)ccc2c1C` [Example 18, N-(2-Ethoxybenzene-1-sulfonyl)-3,6-dimethyl-1-benzofuran-2-carboxamide], for which the results for the EC50 in the experiment with MDA-MB-436 cells, in the experiment on ZR-75-1 cells and with LCLC-97TM1 cells were > 2e-05 M, 5.01e-06 M and 1.06e-05 M, respectively. Also, the IC50 in experiment [1] was 5.56e-06 M; on KAT6A, 0.827 µM.

For the compound `Cc1ccc2cccc(S(=O)(=O)NC(=O)c3cc4ccc(C(F)(F)F)cc4o3)c2n1` [Example 19, N-(2-Methylquinoline-8-sulfonyl)-6-(trifluoromethyl)-1-benzofuran-2-carboxamide], the EC50 in the experiment with MDA-MB-436 cells is > 2e-05 M; in the experiment on ZR-75-1 cells, 4.94e-06 M; in the experiment with LCLC-97TM1 cells it was > 2e-05 M. The figures for the IC50 (in experiment [1]; on KAT6A) were 3.63e-06 M and 0.729 µM, respectively.

Regarding `O=C(NS(=O)(=O)c1ccccc1-c1ccccc1)c1cc2ccc(-c3ccncc3)cc2o1` [Example 20, N-([1,1′-Biphenyl]-2-sulfonyl)-6-(pyridin-4-yl)-1-benzofuran-2-carboxamide], the EC50 in the experiment with MDA-MB-436 cells is > 2e-05 M; in the experiment on ZR-75-1 cells, 3.49e-06 M. In addition, the IC50 at KAT6A was > 20 µM.

Turning to `C=C(C)c1ccc2cc(C(=O)NS(=O)(=O)c3ccccc3-c3ccccc3)oc2c1` [Example 23, N-([1,1′-biphenyl]-2-sulfonyl)-6-(prop-1-en-2-yl)-1-benzofuran-2-carboxamide], the EC50 with MDA-MB-436 cells was > 2e-05 M; in the experiment on ZR-75-1 cells it was 1.15e-06 M.

For `CCOc1ccc(C(C)CC)cc1S(=O)(=O)NC(=O)c1cc2c(F)cc(C3CC3)cc2o1` (stereo not drawn) [Example 29, 6-Cyclopropyl-N-(2-ethoxy-5-sec-butyl-phenyl)sulfonyl-4-fluoro-benzofuran-2-carboxamide], the EC50 in the experiment on MDA-MB-436 cells is > 2e-05 M; in the experiment with ZR-75-1 cells, 8.86e-08 M; in the experiment with LCLC-97TM1 cells, 2.77e-07 M. The values for the IC50 (in experiment [1]; at KAT6A) were 7.41e-08 M and 0.00184 µM, respectively.

As to `O=C(NS(=O)(=O)c1ccc(Cl)cc1Cl)c1cc2c(F)cc(C3CC3)cc2o1` [Example 37, 6-Cyclopropyl-N-(2,4-dichlorophenyl)sulfonyl-4-fluoro-benzofuran-2-carboxamide], the EC50 was > 2e-05 M with MDA-MB-436 cells, 6.28e-06 M with ZR-75-1 cells and > 2e-05 M in the experiment on LCLC-97TM1 cells. The IC50 in experiment [1] stood at 1.06e-05 M; on KAT6A it was 0.078 µM.

For the compound `CCOc1ccccc1S(=O)(=O)NC(=O)c1cc2c(C(F)(F)F)cc(C3CC3)cc2o1` [Example 51, 6-Cyclopropyl-N-(2-ethoxyphenyl)sulfonyl-4-(trifluoromethyl)benzofuran-2-carboxamide], the IC50 stood at 2.98e-06 M in experiment [1] and 0.0256 µM at KAT6A. Further, the EC50 in the experiment with ZR-75-1 cells amounted to 9.14e-06 M.

Turning to `O=C(NS(=O)(=O)c1ccccc1)c1cc2c(C(F)(F)F)cc(C3CC3)cc2o1` [Example 52, N-(Benzenesulfonyl)-6-cyclopropyl-4-(trifluoromethyl)benzofuran-2-carboxamide], the IC50 in experiment [1] turned out to be 1.88e-05 M; at KAT6A, 0.138 µM. Moreover, in the experiment on ZR-75-1 cells, the EC50 is 7.32e-06 M.

Consider `O=C(NS(=O)(=O)c1ccccc1-c1ccccc1)c1cc2c(C(F)(F)F)cc(C3CC3)cc2o1` [Example 53, 6-Cyclopropyl-N-(2-phenylphenyl)sulfonyl-4-(trifluoromethyl)benzofuran-2-carboxamide], for which the results for the IC50 (in experiment [1]; at KAT6A) were 6.16e-06 M and 0.043 µM, respectively. The EC50 in the experiment with ZR-75-1 cells was > 2e-05 M.

On to `CC(C)c1ccc2cc(C(=O)NS(=O)(=O)c3ccc(Cl)cc3Cl)oc2c1` [Example 57, N-(2,4-Dichlorobenzenesulfonyl)-6-(propan-2-yl)-1-benzofuran-2-carboxamide], for which the EC50 with MDA-MB-436 cells and in the experiment with ZR-75-1 cells was > 2e-05 M in each case. For the same compound, in experiment [1], the IC50 turned out to be 1.21e-05 M.
